Data published in patent US20210284617A1, “Synthesis of (S)-2-Amino-4-Methyl-((R)-2-Methyloxirane-2-Yl)-Pentan-1-One and Pharmaceutically Acceptable Salts Thereof” (Amgen Inc., priority 2016, published 2021).
In brackets after ≈: the same amount, converted by molar mass.

What was measured:
[1] = Storage stability of the step 2 product, concentrated or in ACN/MTBE solution; type: physicochemical; details: for time stable in solution: 2-10 V of ACN or MTBE
Source text: Appropriate quenching of the Grignard process is important to ensure product quality and to eliminate racemization. A Grignard adduct impurity resulting from double-addition of the Grignard reagent was detected by LCMS at ˜2 LCAP during inverse addition of the reaction mixture to a mixture of MTBE (5 V) and 25% citric acid aqueous solution (10 V). An increase in the level of the double-addition by-product (up to 11 LCAP) was observed when quenching the reaction mixture into citric acid solution (in the absence of MTBE) with an associated decrease in product yield by >35%. The excess Grignard could react with product of step 2 that was hydrolyzed after work-up leading to the formation of the impurity. Of note, the impurities of double-addition, morpholine-adduct and dimers could not be detected by HPLC due to their relatively low response factors, but could be detected by LCMS and TLC (EtOAc/heptane 1:4, Nihydrin). Thus, it is important to carefully control the amount of Grignard reagents used and to carefully quench the reaction upon completion. Racemization of step 2 product was not observed during the course of optimization of the Grignard process or during the inverse quenching step. The concentrated product with BHT was stable at ambient temperature for one month; BHT in this sample originated from the solvent (250 ppm in stabilized THF) used in the Grignard process. The solution containing the product of step 2 in 2-10 V of ACN or MTBE was stable at room temperature or 5° C. for at least 4 days or 18 hours at 35° C., which was required to optimize the solvent switch to ACN for the step 3 epoxidation.

[2] = Solubility of compound in organic solvents (crystallization development); type: physicochemical; details: for solubility in organic solvents (in words): isolation/crystallization context
Source text: Importantly, the intermediate synthesis of compound 3a allowed for the development of a crystallization process capable of purging upstream impurities and eliminating the requirement for column chromatography at step 1 or 2. […] Alternatively, a ternary system of three (3) solvents, such as acetonitrile/water/acetic acid will also work to isolate compound 3a. Further, the epoxidation step 3 in scheme 3 using the Mn-y76t catalyst of the present invention followed by crystallization with IPA/water worked well to not only to purge the diasteromer impurity but also to purge upstream process impurities.

SMILES | time stable in solution ([1]; 35° C.) [h] | time stable in solution ([1]; room temperature or 5° C.) | time stable as concentrated product ([1]; concentrated product with BHT, ambient temperature) | solubility in organic solvents (in words) [2] | solubility ([2]; organic solvent or mixture, n-hexane at −20° C.) [mg/mL]
C=C(C)C(=O)[C@@H](CC(C)C)NC(=O)OC(C)(C)C [compound 2a, (R)-tert-butyl (2,6-dimethyl-3-oxohept-1-en-4-yl)carbamate] | 18 | at least 4 days | one month | – | –
CC(C)C[C@@H](NC(=O)OC(C)(C)C)C(=O)[C@@]1(C)CO1 [compound 3a, tert-butyl ((R)-4-methyl-1-((R)-2-methyloxiran-2-yl)-1-oxopentan-2-yl)carbamate] | – | – | – | improved solubility profile | –
CC(C)C[C@H](NC(=O)OC(C)(C)C)C(=O)[C@@]1(C)CO1 [compound 4a, tert-butyl ((S)-4-methyl-1-((R)-2-methyloxiran-2-yl)-1-oxopentan-2-yl)carbamate] | – | – | – | high solubility in most all organic solvents | ~34 (≈ 125 mM)
